Data published in article PMC7170311 (Journal of Enzyme Inhibition and Medicinal Chemistry, 2020).

Target: T1, Gal4-DBD-RXRα-LBD (Homo sapiens, UniProt P19793)
T1 sequence (P19793 227-458 limits assumed): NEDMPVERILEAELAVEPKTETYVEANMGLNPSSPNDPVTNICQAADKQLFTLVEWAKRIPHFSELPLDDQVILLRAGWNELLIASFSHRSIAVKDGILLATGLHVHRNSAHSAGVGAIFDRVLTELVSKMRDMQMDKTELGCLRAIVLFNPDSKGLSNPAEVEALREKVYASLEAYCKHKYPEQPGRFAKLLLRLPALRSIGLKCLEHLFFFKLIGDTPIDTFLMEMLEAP
Assay: cell-based
Settings: HEK-293T, read-out: inhibition of 9-cis-RA-induced RXRα transactivation

- inhibition at 1 µM: > 50%
Compound: Cc1ccc(NC(=O)NNC(=O)c2ccc(Nc3nccc(-c4cccnc4)n3)cc2)cc1 [Compound 6k, 2-(4-((4-(pyridin-3-yl)pyrimidin-2-yl)amino)benzoyl)-N-(p-tolyl)hydrazine-1-carboxamide]
